What was measured:
OE21 cells = assay: Clonogenic survival assay with IR, OE21; type: cell-based, human; details: Ru1 2 μM or Cis 500 nM for 24 h before IR
Procedure: Clonogenic survival assay. OE21, OE33 or FLO1 cells were treated with 2 µM Ru1 for 24 h before irradiation with 0-8 Gy using a 137Cs γ-irradiator (IBL637, CIS Bio Int.; dose rate = 0.809 Gy min−1). 1 h after irradiation, cells were detached using Trypsin and re-seeded in 6 well plates at a density of 300 – 20,000 cells/well in triplicate in an incrementally greater number of cells with increasing IR dose to ensure adequate colony formation. Cells were incubated for 7–14 days after re-seeding to allow colony formation before being fixed with 10% methanol, 10% acetic acid and stained with 0.4% methylene blue. OE33 cells required an additional formaldehyde fixation (4% in PBS, 5 mins) step before the addition of methylene blue solution or colony detachment occurred. Colonies containing 50 cells or greater were counted using a Gelcount instrument and accompanying software (Oxford Optronix). Plating efficiencies were determined for each treatment condition and normalised to an untreated control to provide the surviving fraction (S. F.). S.F. versus radiation dose curves were plotted in GraphPad Prism and fit using a second order polynomial function (R2 values > 0.99). Dose modifying factors (DMF) at a SF=0.1 were calculated using the equation: Dose modifying factor (DMF) = IR dose to give S.F. 0.1/IR dose plus compound to give S.F.0.1. […]

MCF7 cells = assay: Micronuclei formation, MCF7; type: cell-based; details: MCF7, 40 μM Ru1, 24 h incubation
Procedure: Microscopy and immunofluorescence. Cells were seeded on ibidi 35 mm µ-dishes (Thistle Scientific), allowed to adhere for 24 h and treated as stated in the main text. Cell media was removed, cells washed with PBS and fixed with formaldehyde (4%, 10 mins). Cells were permeablised with Triton (0.5% in PBS, 5 mins) and washed with PBS. Samples were blocked with BSA (3% in PBS-T) for 1 h before incubation with primary antibody (either anti-α-tubulin or anti-γ H2AX, 1/500 dilution) in BSA (3% in PBS-T) for 1 h. Samples were washed 3x in PBS-T and incubated with Alexa Fluor-conjugated secondary antibodies (3% in PBS-T, 1 h, 1/250 dilution). After further washing (3x5 min PBS-T) samples were co-stained with DAPI (5 ng/ml, 2 min), fresh PBS added and visualised by confocal microscopy. Samples were visualised using a Zeiss LSM 780 or LSM 710 inverted confocal microscope and EC Plan-Neofluar 40x/1.30 Oil objectives. […]
For the determination of mutation induction, from the untreated and each treated condition, 2x10^5 cells were plated in 10 x 100 mm dishes in selective media (regular media

[1] = test system: V79 Chinese hamster cells; assay: HPRT forward mutation assay; type: cell-based
Procedure: propidium iodide (PI) is standard to quantify DNA content using flow cytometry, bleed-through of the MLCT emission of […]
To remove these artefacts, a higher concentration of Ru1 (100 µM, 10 mins) was additionally applied post-incubation and fixation to treated and control samples, acting as a substitute DNA dye instead of PI. After staining, cells were centrifuged (1000 rpm, 5 mins) and re-suspended in PBS.
Samples were analysed using a Biosciences LSRII Flow Cytometer using the FL2 channel to collect (recognisable) cell-cycle […]
profiles. […] A minimum of
10,000 cells were counted for each sample and data were processed using FloJo software.
Microscopy and immunofluorescence. Cells were seeded on ibidi 35 mm µ-dishes (Thistle Scientific), allowed to adhere for 24 h and treated as stated in the main text. Cell media was removed, cells washed with PBS and fixed with formaldehyde (4%, 10 mins). Cells were permeablised with Triton (0.5% in PBS, 5 mins) and washed with PBS. […]
emission was collected from 500-530 nm to prevent spectral overlap with Ru1 emission. γH2AX foci were counted using […]
The absorbance at 540 nm was quantified by plate reader (reference wavelength 650 nm). The metabolic activity of the cell population was determined as a percentage of a negative (solvent) control. […]
Cell cultures were treated as stated, media containing detached/dead cells were removed and retained, and adherent collected by Trypsin and centrifugation. […] Trypan Blue negative and Trypan Blue positive cells were counted by haemocytometer. A minimum of 200 cells were counted for each sample.
HPRT (hypoxanthine-guanine phosphoribosyl transferase) forward mutation assay. […] The cultures were washed with PBS, cells were detached by trypsin (0.05%) and cell number was determined. […] After 7 days' incubation, the resulting colonies were stained with methylene blue and those containing 100 or more cells were counted. Cloning efficiency was determined and is usually expressed in percent relative to the […]

[Ru(phen)2(tpphz)]^2+ [Ru1]
S.F. (OE21 cells; OE21, IR 0 Gy): 1.062 | S.F. (OE21 cells; OE21, IR 2 Gy): 0.801 | S.F. (OE21 cells; OE21, IR 4 Gy): 0.410 | S.F. (OE21 cells; OE21, IR 6 Gy): 0.152 | S.F. (OE21 cells; OE21, IR 8 Gy): 0.062 | Cells with micronuclei, Percentage (MCF7 cells): 6.2% | M.F. (mutation frequency) ([1]; 2 μM of each complex for 24 h): 36.7 ± 7.3 6-TG resistant mutations per 1 × 10^5 viable cells | Rel. M.F. (ratio of induced to spontaneous mutations) ([1]; 2 μM of each complex for 24 h): 5.8 | mutation rate lower than for cisplatin ([1]; HPRT assay, V79, 2 μM, 24 h): two-fold
